According to article PMC7801380, “Development of phenotypic assays for identifying novel blockers of L-type calcium channels in neurons” (Scientific Reports, 2021):
Read-outs that look alike come from different tables or passages of the source. Values belong to the compound of their own block, whether it stands above or below them.

Legend:
[1] = test system: L-type calcium channels (LTCCs); experiment: Calcium flux (FLIPR) assay, Bay K8644-induced responses in rat primary cortical cultures; assay type: cell-based; details: for Block of Bay K8644-evoked calcium fluorescent response: compound 3 µM
LTCC currents = experiment: Patch clamp, LTCC currents in rat cortical neurons; assay type: cell-based
CaV1.2 = CaV1.2 (Homo sapiens, UniProt Q13936); experiment: in vitro; details: pH 7.4
Phenylalkylamine site = experiment: Rat cortex binding, phenylalkylamine site ([3H]D888); details: [3H]D888 3 nM
Method: (§1) The in-vitro binding studies were conducted by Eurofins (France) using rat cortex. […] The IC50 values (the concentration that causes half-maximal inhibition of control specific binding) were determined by non-linear regression analysis of the competition curves using Hill equation: Y = […] Y = specific binding, A = left asymptote of the curve, D = right asymptote of the curve, C = compound concentration, and nH = slope factor. Analyses were performed using software developed at Eurofins (Hill software) and validated by comparison with data generated by the commercial software SigmaPlot 4.0. […] KD values were determined from Scatchard plots.

DHP site = experiment: Rat cortex binding, DHP site ([3H]nitrendipine); details: [3H]nitrendipine 0.1 nM
Method: as §1

Benzothiazepine site = experiment: Rat cortex binding, benzothiazepine site ([3H]diltiazem); details: [3H]diltiazem 15 nM
Method: as §1

VGCCs = experiment: Calcium fluorescent response to high [K+] in rat cortical cultures; assay type: cell-based; details: 100 mM K+, compound 3 µM, holding [K+] 20 mM
[2] = PW library screen hit confirmation, 1.1 µM Bay K8644, holding [K+] 20 mM, read-out: FLIPR IC50 Rat cortical culture
[3] = Vhold/Vtest -50/-20 mV, 300 nM Bay K8644
[4] = Vhold/Vtest -50/-20 mV, 300 nM Bay K8644, read-out: IC50, LTCC currents
[5] = 300 nM Bay K8644, holding [K+] 20 mM, read-out: IC50, inhibition of Bay K-induced responses (calcium flux)

Sequence of CaV1.2 (Q13936 1-2138 isoform Q13936-12): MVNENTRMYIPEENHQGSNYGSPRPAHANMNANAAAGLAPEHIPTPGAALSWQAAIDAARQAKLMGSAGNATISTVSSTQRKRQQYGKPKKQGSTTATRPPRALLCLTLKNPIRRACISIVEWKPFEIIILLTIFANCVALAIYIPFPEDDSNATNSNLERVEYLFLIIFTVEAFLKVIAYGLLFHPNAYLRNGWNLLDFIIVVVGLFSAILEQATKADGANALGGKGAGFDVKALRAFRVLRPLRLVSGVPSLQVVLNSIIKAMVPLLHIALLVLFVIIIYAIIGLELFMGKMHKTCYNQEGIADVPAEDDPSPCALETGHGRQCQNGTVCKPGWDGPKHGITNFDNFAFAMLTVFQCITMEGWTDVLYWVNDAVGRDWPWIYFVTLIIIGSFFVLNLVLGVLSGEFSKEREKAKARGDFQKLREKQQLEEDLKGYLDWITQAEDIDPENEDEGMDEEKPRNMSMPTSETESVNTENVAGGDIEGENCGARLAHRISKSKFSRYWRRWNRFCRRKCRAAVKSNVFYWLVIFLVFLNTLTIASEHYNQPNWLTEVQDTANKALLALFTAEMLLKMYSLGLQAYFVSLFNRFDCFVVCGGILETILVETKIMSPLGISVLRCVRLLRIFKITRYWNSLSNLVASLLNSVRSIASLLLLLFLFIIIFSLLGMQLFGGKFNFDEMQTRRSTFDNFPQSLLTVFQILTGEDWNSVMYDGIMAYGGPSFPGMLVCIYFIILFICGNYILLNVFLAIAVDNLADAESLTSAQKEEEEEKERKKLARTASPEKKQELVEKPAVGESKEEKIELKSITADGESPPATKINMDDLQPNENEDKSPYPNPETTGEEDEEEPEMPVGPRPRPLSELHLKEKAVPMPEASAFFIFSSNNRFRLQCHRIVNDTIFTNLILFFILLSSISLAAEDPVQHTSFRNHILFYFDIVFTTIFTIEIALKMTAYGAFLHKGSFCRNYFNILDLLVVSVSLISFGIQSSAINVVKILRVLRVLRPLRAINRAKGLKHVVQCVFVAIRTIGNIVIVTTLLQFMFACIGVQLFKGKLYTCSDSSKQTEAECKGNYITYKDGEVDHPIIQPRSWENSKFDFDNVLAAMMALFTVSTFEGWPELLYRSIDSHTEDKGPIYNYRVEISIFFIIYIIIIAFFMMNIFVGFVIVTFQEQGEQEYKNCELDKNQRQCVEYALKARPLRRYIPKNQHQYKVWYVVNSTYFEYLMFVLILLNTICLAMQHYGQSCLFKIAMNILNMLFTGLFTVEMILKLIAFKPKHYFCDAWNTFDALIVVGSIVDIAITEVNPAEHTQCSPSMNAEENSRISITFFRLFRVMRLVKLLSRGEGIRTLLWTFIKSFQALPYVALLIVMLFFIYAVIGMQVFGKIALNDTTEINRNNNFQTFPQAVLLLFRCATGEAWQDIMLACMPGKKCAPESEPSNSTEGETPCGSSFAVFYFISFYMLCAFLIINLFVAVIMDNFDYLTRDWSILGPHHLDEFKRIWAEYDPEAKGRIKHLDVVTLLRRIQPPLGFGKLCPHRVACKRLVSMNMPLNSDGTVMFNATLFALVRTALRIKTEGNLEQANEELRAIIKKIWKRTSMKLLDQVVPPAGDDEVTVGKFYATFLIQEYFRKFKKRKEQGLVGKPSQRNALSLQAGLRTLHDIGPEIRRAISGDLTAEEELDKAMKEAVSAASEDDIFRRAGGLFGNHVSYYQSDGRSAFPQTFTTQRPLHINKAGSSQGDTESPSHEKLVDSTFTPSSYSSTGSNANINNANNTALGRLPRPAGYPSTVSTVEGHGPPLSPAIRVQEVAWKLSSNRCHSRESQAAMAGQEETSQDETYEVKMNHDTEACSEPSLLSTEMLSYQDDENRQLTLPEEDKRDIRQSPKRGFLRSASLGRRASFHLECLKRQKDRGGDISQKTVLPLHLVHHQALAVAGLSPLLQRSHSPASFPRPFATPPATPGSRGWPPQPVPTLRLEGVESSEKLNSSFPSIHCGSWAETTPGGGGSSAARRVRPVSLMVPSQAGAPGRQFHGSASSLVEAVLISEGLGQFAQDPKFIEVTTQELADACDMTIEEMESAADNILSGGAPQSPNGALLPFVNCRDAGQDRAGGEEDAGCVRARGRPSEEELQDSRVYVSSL

EC50 ([1]; holding [K+] 20 mM, read-out: EC50, activation of LTCCs (calcium flux)): 0.204 µM
EC50 (LTCC currents; Vhold -50 mV, Vtest -20 mV, read-out: EC50, Bay K8644 concentration dependence (patch clamp)): 0.0406 µM
SMILES: COC(=O)C1=C(C)NC(C)=C([N+](=O)[O-])C1c1ccccc1C(F)(F)F (centres unmarked) [Bay K8644]

IC50 [1, 2]: 0.104 µM
SMILES: COC(=O)C1=C(C)NC(C)=C(C(=O)OC2CCCN(Cc3ccccc3)C2)C1c1cccc([N+](=O)[O-])c1 (centres unmarked) [Benidipine]

SMILES: CN1CCC(=C2c3ccccc3C=Cc3ccccc32)CC1 [Cyproheptadine]
% block of LTCC currents (LTCC currents; 3 µM compound, -50/-20 mV, 300 nM Bay K8644): 75.2 ± 9.1%
inhibition at 3 µM (CaV1.2): 52.3 ± 6.1%

IC50 (Phenylalkylamine site; n = 4, read-out: IC50 positive control, phenylalkylamine site binding): 0.0268 ± 0.0036 µM
SMILES: COc1ccc(CCN(C)CCCC(C#N)(c2cc(OC)c(OC)c(OC)c2)C(C)C)cc1OC (centres unmarked) [D600]

IC50 [1, 2]: 0.057 µM
SMILES: CCOC(=O)C1=C(C)NC(C)=C(C(=O)OC)C1c1cccc(Cl)c1Cl (centres unmarked) [Felodipine]

IC50 [1, 2]: 0.68 µM
SMILES: Fc1ccc(C(OCCN2CCN(CCCc3ccccc3)CC2)c2ccc(F)cc2)cc1 [GBR 12909]

IC50 [1, 2]: 0.008 µM
SMILES: COC(=O)C1=C(C)NC(C)=C(C(=O)OC(C)C)C1c1cccc2nonc12 (centres unmarked) [Isradipine]

IC50 [1, 2]: 0.453 µM
SMILES: CCOC(=O)C1=C(C)NC(C)=C(C(=O)OCC)C1c1ccccc1/C=C/C(=O)OC(C)(C)C [Lacidipine]

IC50 [1, 2]: 0.29 µM
SMILES: COC(=O)C1=C(C)NC(C)=C(C(=O)OCCN(C)Cc2ccccc2)C1c1cccc([N+](=O)[O-])c1 (centres unmarked) [Nicardipine]

IC50 ([1]; PW library screen hit confirmation, 1.1 µM Bay K8644, holding [K+] 20 mM, listed as niclosamide, read-out: FLIPR IC50 Rat cortical culture): 0.0795 ± 0.0128 µM
IC50 [1, 2]: 0.08 µM
IC50 (LTCC currents; [4]): 0.183 ± 0.0282 µM
Ki (DHP site; rat cortical homogenates): > 30 µM
Ki (Phenylalkylamine site; rat cortical homogenates): > 30 µM
Ki (Benzothiazepine site; rat cortical homogenates): > 30 µM
SMILES: O=C(Nc1ccc([N+](=O)[O-])cc1Cl)c1cc(Cl)ccc1O [Niclosamide]
maximal % inhibition of LTCC-mediated calcium flux ([1]; cortical cultures, n = 3): 100%
max % inhibition of LTCC currents (LTCC currents; [3]): full efficacy
max % inhibition of LTCC currents (LTCC currents; Vhold/Vtest -50/-20 mV, 300 nM Bay K8644, listed as niclosamide): 100%
20–80% rise time (LTCC currents; at -20 mV, in presence of 200 nM compound): 16.1 ± 3.5 ms
Current remaining after 400 ms of depolarization, % of the peak (LTCC currents; depolarization to -20 mV, 200 nM compound): 41.9 ± 7.5%
inhibition at 0.1 µM (CaV1.2): 80.6 ± 4.9%

IC50 [1, 2]: 0.028 µM
SMILES: COC(=O)C1=C(C#N)NC(C)=C(C(=O)OC(C)C)C1c1cccc([N+](=O)[O-])c1 (centres unmarked) [Nilvadipine]

IC50 [1, 5]: 0.142 µM
IC50 [1, 2]: 0.11 µM
IC50 (LTCC currents; Vhold/Vtest -50/0 mV, control (no Bay K), read-out: IC50, patch clamp current): 0.0283 ± 0.0065 µM
IC50 (LTCC currents; Vhold/Vtest -50/-20 mV, 300 nM Bay K8644, listed as nimodipine, read-out: IC50, LTCC currents): 0.415 µM
IC50 (LTCC currents; [4]): 0.401 ± 0.0218 µM
IC50 (LTCC currents; Vhold/Vtest -50/-20 mV, control (no Bay K), read-out: IC50, patch clamp current): 0.0248 µM
IC50 (LTCC currents; Vhold/Vtest -90/0 mV, control (no Bay K), read-out: IC50, patch clamp current): 4.8 µM
SMILES: COCCOC(=O)C1=C(C)NC(C)=C(C(=O)OC(C)C)C1c1cccc([N+](=O)[O-])c1 (centres unmarked) [Nimodipine]
Block of Bay K8644-evoked calcium fluorescent response ([1]; 1.1 µM Bay K8644, holding [K+] 20 mM): completely
Block of Bay K8644-evoked calcium fluorescent response ([1]; 1.1 µM Bay K8644, holding [K+] 20 mM, listed as nimodipine): completely blocked
Decrease of potency of inhibition by Bay K (LTCC currents; IC50 with 300 nM Bay K vs without, -50/-20 mV): 16.7 fold
max % inhibition (fraction of sensitive current) (LTCC currents; Vhold/Vtest -50/0 mV, control (no Bay K)): 85.4 ± 3.7%
max % inhibition (fraction of sensitive current) (LTCC currents; Vhold/Vtest -50/0 mV, control (no Bay K), listed as nimodipine): 85%
max % inhibition of LTCC currents (LTCC currents; [3]): 99.1 ± 1.1%
max % inhibition of LTCC currents (LTCC currents; Vhold/Vtest -50/-20 mV, 300 nM Bay K8644, listed as nimodipine): 99%
max % inhibition (fraction of sensitive current) (LTCC currents; Vhold/Vtest -50/-20 mV, control (no Bay K)): 96.1 ± 0.8%
max % inhibition (fraction of sensitive current) (LTCC currents; Vhold/Vtest -50/-20 mV, control (no Bay K), listed as nimodipine): 96%
max % inhibition (fraction of sensitive current) (LTCC currents; Vhold/Vtest -90/0 mV, control (no Bay K)): 75%
Block of high [K+]-evoked calcium fluorescent response (VGCCs): partially
Block of high [K+]-evoked calcium fluorescent response (VGCCs; listed as nimodipine): partially blocked

IC50 [1, 2]: 0.14 µM
IC50 (DHP site; n = 4, read-out: IC50 positive control, DHP site binding): 0.00019 ± 3e-05 µM
SMILES: CCOC(=O)C1=C(C)NC(C)=C(C(=O)OC)C1c1cccc([N+](=O)[O-])c1 (centres unmarked) [Nitrendipine]

IC50 [1, 5]: 27.1 µM
IC50 (Benzothiazepine site; n = 4, read-out: IC50 positive control, benzothiazepine site binding): 0.0427 ± 0.0068 µM
SMILES: COc1ccc([C@@H]2Sc3ccccc3N(CCN(C)C)C(=O)[C@@H]2OC(C)=O)cc1 [diltiazem]

IC50 [1, 2]: 0.82 µM
SMILES: CC(NCCC(c1ccccc1)c1ccccc1)c1ccccc1 (centres unmarked) [fendiline]

IC50 [1, 2]: 0.76 µM
SMILES: O=C1NCN(c2ccccc2)C12CCN(CCCC(c1ccc(F)cc1)c1ccc(F)cc1)CC2 [fluspirilene]

IC50 [1, 2]: 0.71 µM
SMILES: Cc1cccc(C)c1NC(=O)CN1CCN(CCCC(c2ccc(F)cc2)c2ccc(F)cc2)CC1 [lidoflazine]
